Results: paper PMC9732821, “Neurotrophic Activity and Its Modulation by Zinc Ion of a Dimeric Peptide Mimicking the Brain-Derived Neurotrophic Factor N-Terminal Region” (ACS Chemical Neuroscience, 2022)

B1: brain-derived neurotrophic factor (protein, UniProt P23560 1-247, looked up)
chain: MTILFLTMVISYFGCMKAAPMKEANIRGQGGLAYPGVRTHGTLESVNGPKAGSRGLTSLADTFEHVIEELLDEDQKVRPNEENNKDADLYTSRVMLSSQVPLEPPLLFLLEEYKNYLDAANMSMRVRRHSDPARRGELSVCDSISEWVTAADKKTAVDMSGGTVTVLEKVPVSKGQLKQYFYETKCNPMGYTKEGCRGIDKRHWNSQCRTTQSYVRALTMDSKKRIGWRFIRIDTSCVCTLTIKRGR
modifications: full-length
notes: full-length human BDNF produced recombinantly in Escherichia coli

Tested on: TrkB-EGFP
Experiment: TrkB dimerization, number & brightness (N&B) in living SH-SY5Y cells
Type: cell-based, human
Conditions: 150 ng/mL BDNF or 10 μM d-bdnf, within 30 min; f-EGFP monomeric reference; two independent experiments
Procedure: Figure 1 Activation of the TrkB receptor by BDNF and its mimetic peptide ligands. (A) Schematic picture of the human TrkB receptor fused to the EGFP construct (hTrkB-EGFP); recombinant human mature BDNF (hBDNF); monomeric peptide, m-bdnf; dimeric peptide, d-bdnf; scrambled s-bdnf. (B) WB showing Tyr phosphorylation (p-Tyr, top) and total TrkB levels (bottom) in SH-SY5Y cells transfected with hTrkB-EGFP in the absence (ctrl) or presence of 10 min stimulation with 150 ng/mL BDNF or 10 μM m-bdnf, d-bdnf, or s-bdnf. Samples were immunoprecipitated (IP) with the anti-GFP antibody before WB. […] (C) Scatter dot plot of ERK (left) and AKT (right) phosphorylation levels detected in differentiated SH-SY5Y cells, after stimulation with the same treatments as in (B). […] (G) Bar graph of mean ± SD ‘B-1’ values retrieved from N&B analysis for all the different conditions measured. […]
The same TrkB-GFP expressing SH-SY5Y cells were used to deeper investigate the mechanism of TrkB activation induced by d-bdnf, using an advanced imaging approach in living cells. We exploited a fluorescence correlation technique, which directly correlates the brightness of each fluorescent pixel of the image to the number of TrkB molecules averagely populating that pixel during the observation time (number & brightness technique—N&B[34],[35]). […]

Molecule | TrkB monomer/dimer state at plasma membrane
HSDPARRGELSVC-C-VSLEGRRAPDSH (disulfide) [d-bdnf] | shift toward the dimeric form
B1 | shift toward the dimeric form
